How the values were obtained:
[1] = system: NRG1; assay: NRG1 isoform expression in stem cells after DAC treatment (RT-qPCR); assay type: cell-based, human
Description: A. Microarray data showing that NRG1 is preferentially expressed in clonal cell line AF2, both stem cells and adipocytes. UCP1 is a brown adipose tissue (BAT) marker and UCP2 is a white adipose tissue (WAT) marker. Adiponectin (ADIPOQ) shown as a differentiation control. P-values calculated relative to NRG4 using 1-way ANOVA. Analysis of gene expression in mouse adipose precursor cell lines isolated from inguinal (B) or perigonadal (C) depots of a male mouse. […] NRG, Neuregulin; UCP, uncoupling protein; AdipoQ, adiponectin. Isoform-specific epigenetic induction of NRG1 expression in primary human cells, clonal (D) and raw processed lipoaspirate (E). Expression of NRG1 is induced with demethylating agent decitabine (DAC). Types I-III represent distinct transcriptional start sites within the NRG1 locus and produce different mRNA isoforms (see FIG. 7D for map). The Type III isoform is specifically DAC responsive. P-values derived from Tukey's HSD post-hoc test after ANOVA and are relative to corresponding matched DMSO control. Note Type II isoform expression was not detected in the stem cells.
First, by evaluating gene expression in stem cells immediately after DAC treatments (rather than differentiated cells), we minimized secondary gene expression changes caused by the differentiation process itself. […]

[2] = system: AF2 cells; assay: adipose differentiation assay with AF2 clonal cells; assay type: cell-based, human
Description: Because patient-derived cells, such as ASCs, are highly heterogeneous, it is vital to ensure that the differences in cell behavior are truly fate decisions and not a measure of non-stem cell contamination (perhaps immune cells, fibroblasts, or other cells). We therefore have performed our experiments with clonally-derived cells expanded in the inventor's laboratory. Many of our experiments use a single clonal line isolated from ASC080414A (Zen-Bio, Inc.), called the AF2 line. Clonal isolation has the advantage of minimizing both genetic and epigenetic variance, which enabled us to identify a highly significant signal in our data (FIG. 6E).
First, by evaluating gene expression in stem cells immediately after DAC treatments (rather than differentiated cells), we minimized secondary gene expression changes caused by the differentiation process itself. Second, hypothesizing that the expression of driver genes will more strongly correlate with differentiation efficiency than passenger genes, we obtained the Pearson's correlation between candidate gene expression in stem cells and the relative formation of adipocytes after 14-18 days of adipogenic induction. Third, we used a clonal cell line (AF2) in order to minimize epigenetic variability between cells. […]

Molecule: Nc1ncn([C@H]2C[C@H](O)[C@@H](CO)O2)c(=O)n1 [DAC, 5-aza-2′-deoxycitidine]
- up-regulation of one NRG1 isoform (Type III) relative to DMSO control ([1]; 1 μM DAC): approximately 10 fold
- increase of NRG1 Type I isoform ([1]; DAC vs DMSO): ~2 fold

B1: NRG1 EGF-β peptide: recombinant NRG1 EGF-β domain peptide, 65 amino acids, BioLegend Cat # 711104 (protein, listed as Homo sapiens)
chain: SHLVKCAEKEKTFCVNGGECFMVKDLSNPSRYLCKCPNEFTGDRCQNYVMASFYKHLGIEFMEAE
- differentiation induction by recombinant NRG1 peptide added to culture media ([2]; AF2 clonal cells): able to recapitulate the differentiation induction observed with DAC
- activating dose of NRG1 peptide ([2]; stem cells, FIGS. 7A,B,C): 200 ng/mL

From US20200131238A1, “METHOD FOR PROMOTING ADIPOCYTE DIFFERENTIATION AND OBESITY-RELATED DISEASE TREATMENT” (AMERICAN UNIVERSITY, priority 2018, published 2020)
